Source: patent US20250177362A1, “HETEROCYCLIC GLP-1 AGONISTS” (Gasherbrum Bio, Inc., priority 2022, published 2025)

What follows are compounds tested against T1, GLP-1 Receptor (Homo sapiens, UniProt P43220) (assay: GLP-1R agonist cAMP stimulation assay). Conditions: HEK293/CRE-Luc cell line stably expressing the GLP-1 Receptor; 30 min incubation; cAMP dynamic 2 Kit (Cisbio).
T1 construct: host or cells: HEK293/CRE-Luc (HEK293/GLPIR/CRE-LUC)
T1 sequence (P43220 24-463, species assumed): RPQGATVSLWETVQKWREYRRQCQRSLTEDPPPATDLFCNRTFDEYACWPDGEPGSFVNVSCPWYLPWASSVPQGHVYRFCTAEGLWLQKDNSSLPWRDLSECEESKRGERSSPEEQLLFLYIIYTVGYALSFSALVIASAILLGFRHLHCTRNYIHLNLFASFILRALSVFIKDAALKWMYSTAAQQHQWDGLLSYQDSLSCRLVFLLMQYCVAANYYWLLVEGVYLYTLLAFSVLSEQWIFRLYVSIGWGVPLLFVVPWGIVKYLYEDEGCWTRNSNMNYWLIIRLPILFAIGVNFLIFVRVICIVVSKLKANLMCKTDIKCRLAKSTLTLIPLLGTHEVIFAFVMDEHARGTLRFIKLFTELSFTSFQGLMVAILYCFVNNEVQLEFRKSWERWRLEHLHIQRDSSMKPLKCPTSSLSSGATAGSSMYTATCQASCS
Format: cell-based
Description: Activation of GLP-1 receptor is known to stimulate cyclic AMP (cAMP) production in cells which indicates primary coupling to the Gas subunit of the G protein heterotrimeric complex.
To optimize functional activity directed toward Gas coupling, a HEK293/CRE-Luc cell line developed by HDB stably expressing the GLP-1 Receptor was used. 200× concentration of compound working solutions were prepared (Agilent Technologies Bravo) with ½ log serial dilution in 384-well Echo LDV plate (Labcyte, Cat #LP-0200). 50 nL/well 200× concentration of compound working solutions were moved to 384-well white low volume plate (Greiner, Cat #784075) using Labcyte ECHO550. 1×10^5 cells/mL HEK293/GLPIR/CRE-LUC (HD Biosciences) cell suspensions prepared with assay buffer [DPBS containing 0.5 mM IBMX (Sigma, Cat #15879) and 0.10% BSA (GENVIEW, Cat #FA016-100g)], 10 μL cell suspensions were added to each well of previous generated assay plate which already contains 50 nL compound at 200× concentration using ThermoFisher Multidrop Combi (1000 cells/well). Seal the plate and incubate at 37° C. with 5% CO2 for 30 min.
After incubation the cAMP assay signal was generated using cAMP dynamic 2 Kit (Cisbio). 5 μL cAMP-d2 working solution was added to each well, followed with 5 μL Anti-cAMP antibody-cryptate working solution added to each well using ThermoFisher Multidrop Combi. Incubate at room temperature for 1 hour protected from light. Read the fluorescence at 665 and 615 nm with Reader PerkinElmer EnVision.
For `CC1(c2ccc(C(=O)O)cc2F)Oc2cccc(C3CCN(Cc4ncc(-c5nnc(C(F)(F)F)[nH]5)cc4CC4(C#N)CC4)CC3)c2O1` (centres unmarked) [A-3], the EC50 was 1 to 100 nM. With `C[C@]1(c2ccc(Cl)cn2)Oc2cccc(C3CCN(Cc4ncc(C(=O)NC5(C#N)CC5)cc4CC4(C#N)CC4)CC3)c2O1` [D-6] the EC50 was > 100 nM. With `CC1(c2ccc(Cl)cc2F)Oc2cccc(C3CCN(Cc4ncc(-c5nnc(C(F)(F)F)[nH]5)cc4OC4CCCC4)CC3)c2O1` (centres unmarked) [F-12, 2-((4-(2-(4-chloro-2-fluorophenyl)-2-methylbenzo[d][1,3]dioxol-4-yl)piperidin-1-yl)methyl)-3-(cyclopentyloxy)-5-(5-(trifluoromethyl)-4H-1,2,4-triazol-3-yl)pyridine] the EC50 was 1 to 100 nM. `Cc1cc(-c2nc(-c3cccnc3)no2)cnc1CN1CCC(c2cccc(OCc3ccc(Cl)cc3F)n2)CC1` [E-15] was tested, and the EC50 was > 100 nM. With `C[C@]1(c2ccc(Cl)cc2F)Oc2cccc(C3CCN(Cc4ncc(-c5nnc(C(F)(F)F)[nH]5)cc4N4CC5CC4CO5)CC3)c2O1` (stereo partly drawn) [F-5, 5-[2-({4-[(2S)-2-(4-chloro-2-fluorophenyl)-2-methyl-2H-1,3-benzodioxol-4-yl]piperidin-1-yl}methyl)-5-[5-(trifluoromethyl)-4H-1,2,4-triazol-3-yl]pyridin-3-yl]-2-oxa-5-azabicyclo[2.2.1]heptane] the EC50 was 1 to 100 nM. Compound `CC1(C#N)CN(c2cc(-c3nnc(C(F)(F)F)[nH]3)cnc2CN2CCC(c3cccc4c3O[C@@](C)(c3ccc(Cl)cc3F)O4)CC2)C1` [F-18, (S)-1-(2-((4-(2-(4-chloro-2-fluorophenyl)-2-methylbenzo[d][1,3]dioxol-4-yl)piperidin-1-yl)methyl)-5-(5-(trifluoromethyl)-4H-1,2,4-triazol-3-yl)pyridin-3-yl)-3-methylazetidine-3-carbonitrile] has an EC50 of 1 to 100 nM. `C[C@]1(c2ccc(Cl)cc2F)Oc2cccc(C3CCN(Cc4ncc(-c5nnc(C(F)(F)F)[nH]5)cc4C4CCOCC4)CC3)c2O1` [F-6, (S)-2-((4-(2-(4-chloro-2-fluorophenyl)-2-methylbenzo[d][1,3]dioxol-4-yl)piperidin-1-yl)methyl)-3-(tetrahydro-2H-pyran-4-yl)-5-(5-(trifluoromethyl)-4H-1,2,4-triazol-3-yl)pyridine] was tested, and the EC50 was 1 to 100 nM. `C[C@]1(c2ccc(Cl)cc2F)Oc2cccc(C3CCC(Cc4ncc(-c5nnc(C(N)=O)[nH]5)cc4CC4(C#N)CC4)CC3)c2O1` (some centres unmarked) [B-1] was tested, and the EC50 was < 1 nM. With `Cc1cc(-c2nnc(-c3cccnc3)[nH]2)cnc1CN1CCC(c2cccc3c2O[C@@](C)(c2ccc(Cl)cc2F)O3)CC1` [E-6] the EC50 was 1 to 100 nM. In the case of `Cc1cc(-c2noc(-c3cccnc3)n2)cnc1CN1CCC(c2cccc(OCc3ccc(Cl)cc3F)n2)CC1` [E-12], the EC50 is reported as > 100 nM. `N#CC1(Cc2cc(C(=O)NC3(C#N)CC3)cnc2CN2CCC(c3ccc(F)c(OCc4ccc(Cl)cc4F)n3)CC2)CC1` [D-7] was tested, and the EC50 was > 100 nM. Compound `CC1(C#N)CCN(c2cc(-c3nnc(C(F)(F)F)[nH]3)cnc2CN2CCC(c3cccc4c3O[C@@](C)(c3ccc(Cl)cc3F)O4)CC2)C1` (stereo partly drawn) [F-13, 1-(2-((4-((S)-2-(4-chloro-2-fluorophenyl)-2-methylbenzo[d][1,3]dioxol-4-yl)piperidin-1-yl)methyl)-5-(5-(trifluoromethyl)-4H-1,2,4-triazol-3-yl)pyridin-3-yl)-3-methylpyrrolidine-3-carbonitrile] has an EC50 of 1 to 100 nM. `Cc1cc(-c2cnc(C(=O)O)s2)cnc1CN1CCC(c2cccc3c2OC(C)(c2ccc(Cl)cc2F)O3)CC1` (centres unmarked) [E-9] gave an EC50 of 1 to 100 nM. With `C[C@]1(c2ccc(Cl)cc2F)Oc2cccc(C3CCN(Cc4ncc(-c5nnc(C(F)(F)F)[nH]5)cc4C4CCCOC4)CC3)c2O1` (some centres unmarked) [F-10] the EC50 was 1 to 100 nM. In the case of `C[C@]1(c2ccc(Cl)cc2F)Oc2cccc(C3CCN(Cc4nnc(-c5nnc(C(F)(F)F)[nH]5)cc4N4CCOC5(CC5)C4)CC3)c2O1` [F-8, (S)-7-(3-((4-(2-(4-chloro-2-fluorophenyl)-2-methylbenzo[d][1,3]dioxol-4-yl)piperidin-1-yl)methyl)-6-(5-(trifluoromethyl)-4H-1,2,4-triazol-3-yl)pyridazin-4-yl)-4-oxa-7-azaspiro[2.5]octane], the EC50 is reported as 1 to 100 nM. Work on `CNC(=O)c1cnc(CN2CCC(c3cccc4c3O[C@@](C)(c3ccc(Cl)cc3F)O4)CC2)c(CC2(C#N)CC2)c1` [D-4] yielded an EC50 of 1 to 100 nM. Work on `COCCNc1cc(-c2nnc(C(F)(F)F)[nH]2)cnc1CN1CCC(c2cccc3c2O[C@@](C)(c2ccc(Cl)cc2F)O3)CC1` [F-4, 2-({4-[(2S)-2-(4-chloro-2-fluorophenyl)-2-methyl-2H-1,3-benzodioxol-4-yl]piperidin-1-yl}methyl)-N-(2-methoxyethyl)-5-[5-(trifluoromethyl)-4H-1,2,4-triazol-3-yl]pyridin-3-amine] yielded an EC50 of 1 to 100 nM. For `C[C@]1(c2ccc(Cl)cc2F)Oc2cccc(C3CCN(Cc4ncc(-c5nnc(C(F)(F)F)[nH]5)cc4C4COC4)CC3)c2O1` [F-19], the EC50 was > 100 nM. With `C[C@]1(c2ccc(Cl)cc2F)Oc2cccc(C3CCN(Cc4ncc(-c5nnc(C(F)(F)F)[nH]5)cc4N4CCC(O)C4)CC3)c2O1` (stereo partly drawn) [F-7, 1-[2-({4-[(2S)-2-(4-chloro-2-fluorophenyl)-2-methyl-2H-1,3-benzodioxol-4-yl]piperidin-1-yl}methyl)-5-[5-(trifluoromethyl)-4H-1,2,4-triazol-3-yl]pyridin-3-yl]pyrrolidin-3-ol] the EC50 was 1 to 100 nM. `Cc1cc(-c2nnc(C3CCCOC3)[nH]2)cnc1CN1CCC(c2cccc3c2O[C@@](C)(c2ccc(Cl)cc2F)O3)CC1` (some centres unmarked) [E-10] was tested, and the EC50 was > 100 nM. `Cc1cc(-c2nc(C(=O)O)cs2)cnc1CN1CCC(c2cccc3c2OC(C)(c2ccc(Cl)cc2F)O3)CC1` (centres unmarked) [E-17] was tested, and the EC50 was > 100 nM. `Cc1cc(-c2csc(C(=O)O)n2)cnc1CN1CCC(c2cccc3c2OC(C)(c2ccc(Cl)cc2F)O3)CC1` (centres unmarked) [E-7] gave an EC50 of 1 to 100 nM. `CC1(c2ccc(Cl)cc2F)Oc2cccc(C3CCN(Cc4ncc(-c5nnn[nH]5)cc4C4CC4)CC3)c2O1` (centres unmarked) [F-14, 2-((4-(2-(4-chloro-2-fluorophenyl)-2-methylbenzo[d][1,3]dioxol-4-yl)piperidin-1-yl)methyl)-3-cyclopropyl-5-(1H-tetrazol-5-yl)pyridine] was tested, and the EC50 was 1 to 100 nM. For `CNC(=O)c1nnc(-c2cnc(CN3CCC(c4cccc5c4O[C@@](C)(c4ccc(Cl)cc4F)O5)CC3)c(CC3(C#N)CC3)c2)[nH]1` [E-4], the EC50 was < 1 nM. In the case of `C[C@]1(c2ccc(Cl)cc2F)Oc2cccc(C3CCN(Cc4ncc(-c5nnc(C(=O)NC6CC6)[nH]5)cc4CC4(C#N)CC4)CC3)c2O1` [E-5], the EC50 is reported as < 1 nM. For `C[C@]1(c2ccc(Cl)cc2F)Oc2cccc(C3CCN(Cc4ncc(-c5nnc(C(F)(F)F)[nH]5)cc4N4CCOCC4)CC3)c2O1` [F-1, 4-[2-({4-[(2S)-2-(4-chloro-2-fluorophenyl)-2-methyl-2H-1,3-benzodioxol-4-yl]piperidin-1-yl}methyl)-5-[5-(trifluoromethyl)-4H-1,2,4-triazol-3-yl]pyridin-3-yl]morpholine], the EC50 was < 1 nM. For `C[C@]1(c2ccc(Cl)cc2F)Oc2cccc(C3CCN(Cc4nnc(-c5nnc(C(F)(F)F)[nH]5)cc4N4CCC(O)C4)CC3)c2O1` (stereo partly drawn) [F-15, 1-(3-((4-((S)-2-(4-chloro-2-fluorophenyl)-2-methylbenzo[d][1,3]dioxol-4-yl)piperidin-1-yl)methyl)-6-(5-(trifluoromethyl)-4H-1,2,4-triazol-3-yl)pyridazin-4-yl)pyrrolidin-3-ol], the EC50 was 1 to 100 nM. Work on `Cc1cc(-c2cc(C(=O)O)n[nH]2)cnc1CN1CCC(c2cccc3c2OC(C)(c2ccc(Cl)cc2F)O3)CC1` (centres unmarked) [E-8] yielded an EC50 of 1 to 100 nM. `COCCNC(=O)c1cnc(CN2CCC(c3cccc4c3O[C@@](C)(c3ccc(Cl)cc3F)O4)CC2)c(CC2(C#N)CC2)c1` [D-3] showed an EC50 of 1 to 100 nM.
